In patent US20230278972A1, “SUBSTITUTED HALOALKYL SULFONANILIDE HERBICIDES” (FMC Corporation, priority 2020, published 2023):

Columns and labels:
Assay type in all cases: in vivo
[1] = system: wheat (Triticum aestivum); test: Test A postemergence, wheat; conditions: Postemergence, 0 to 100 scale (0 no effect, 100 complete control); for Plant response rating, Wheat: 125 g ai/ha, visual injury approx. 10 days; for Wheat plant response rating: 500 g ai/ha, visual injury vs untreated controls after approx. 10 days
Method in brief: (§1)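 Pots: loam soil/sand blend. Pre: directed soil spray at planting. Post: plants 2–10 cm, 1–2 leaf stage. Formulation: non-phytotoxic solvent + surfactant.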

kochia (Bassia scoparia) [2] = test: Test A preemergence, kochia; conditions: Preemergence; for Kochia plant response rating: 125 g ai/ha, visual injury on 0 to 100 scale (0 no effect, 100 complete control), approximately 10 days; for Plant response rating, Kochia: 500 g ai/ha, 0 to 100 scale (0 no effect, 100 complete control)
Method in brief: (§2)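 Compounds in non-phytotoxic solvent with surfactant. Soil: loam/sand. Preemergence via directed soil spray after seeding; postemergence on seedlings 2–10 cm, one- to two-leaf.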

[3] = system: blackgrass (Alopecurus myosuroides); test: Test A postemergence, blackgrass; conditions: Postemergence, 0 to 100 scale (0 no effect, 100 complete control); for Plant response rating, Blackgrass: 125 g ai/ha, visual injury approx. 10 days; for Blackgrass plant response rating: 500 g ai/ha, visual injury vs untreated controls after approx. 10 days
Method in brief: as §2

[4] = system: barnyardgrass (Echinochloa crus-galli); test: Test A preemergence, barnyardgrass; conditions: Preemergence; for Barnyardgrass plant response rating: 125 g ai/ha, visual injury on 0 to 100 scale (0 no effect, 100 complete control), approximately 10 days; for Plant response rating, Barnyardgrass: 500 g ai/ha, 0 to 100 scale (0 no effect, 100 complete control)
Method in brief: as §2

[5] = system: ragweed (common ragweed, Ambrosia artemisiifolia); test: Test A preemergence, ragweed; conditions: Preemergence; for Ragweed plant response rating: 125 g ai/ha, visual injury on 0 to 100 scale (0 no effect, 100 complete control), approximately 10 days; for Plant response rating, Ragweed: 500 g ai/ha, 0 to 100 scale (0 no effect, 100 complete control)
Method in brief: as §2

[6] = system: galium (catchweed bedstraw, Galium aparine); test: Test A postemergence, galium; conditions: Postemergence, 0 to 100 scale (0 no effect, 100 complete control); for Plant response rating, Galium: 125 g ai/ha, visual injury approx. 10 days; for Galium plant response rating: 500 g ai/ha, visual injury vs untreated controls after approx. 10 days
Method in brief: as §1

[7] = system: pigweed (Amaranthus retroflexus); test: Test A postemergence, pigweed; conditions: Postemergence, 0 to 100 scale (0 no effect, 100 complete control); for Plant response rating, Pigweed: 125 g ai/ha, visual injury approx. 10 days; for Pigweed plant response rating: 500 g ai/ha, visual injury vs untreated controls after approx. 10 days
Method in brief: as §2

corn (Zea mays) = test: Test A postemergence, corn; conditions: Postemergence, 0 to 100 scale (0 no effect, 100 complete control); for Plant response rating, Corn: 125 g ai/ha, visual injury approx. 10 days; for Corn plant response rating: 500 g ai/ha, visual injury vs untreated controls after approx. 10 days
Method in brief: as §2

[8] = system: Foxtail, Giant (giant foxtail, Setaria faberi); test: Test A postemergence, Foxtail, Giant; conditions: Postemergence, 0 to 100 scale (0 no effect, 100 complete control); for Plant response rating, Foxtail, Giant: 125 g ai/ha, visual injury approx. 10 days; for Foxtail, Giant plant response rating: 500 g ai/ha, visual injury vs untreated controls after approx. 10 days
Method in brief: as §2

kochia (Bassia scoparia) [9] = test: Test A postemergence, kochia; conditions: Postemergence, 0 to 100 scale (0 no effect, 100 complete control); for Plant response rating, Kochia: 125 g ai/ha, visual injury approx. 10 days; for Kochia plant response rating: 500 g ai/ha, visual injury vs untreated controls after approx. 10 days
Method in brief: as §2

[10] = system: Foxtail, Giant (giant foxtail, Setaria faberi); test: Test A preemergence, Foxtail, Giant; conditions: Preemergence; for Foxtail, Giant plant response rating: 125 g ai/ha, visual injury on 0 to 100 scale (0 no effect, 100 complete control), approximately 10 days; for Plant response rating, Foxtail, Giant: 500 g ai/ha, 0 to 100 scale (0 no effect, 100 complete control)
Method in brief: as §2

[11] = system: Ryegrass, Italian (Italian ryegrass, Lolium multiflorum); test: Test A postemergence, Ryegrass, Italian; conditions: Postemergence, 0 to 100 scale (0 no effect, 100 complete control); for Plant response rating, Ryegrass, Italian: 125 g ai/ha, visual injury approx. 10 days; for Ryegrass, Italian plant response rating: 500 g ai/ha, visual injury vs untreated controls after approx. 10 days
Method in brief: as §2

[12] = system: pigweed (Amaranthus retroflexus); test: Test A preemergence, pigweed; conditions: for Pigweed plant response rating: 125 g ai/ha, visual injury on 0 to 100 scale (0 no effect, 100 complete control), approximately 10 days; for Plant response rating, Pigweed: 500 g ai/ha, 0 to 100 scale (0 no effect, 100 complete control)
Method in brief: as §1

[13] = system: Ryegrass, Italian (Italian ryegrass, Lolium multiflorum); test: Test A preemergence, Ryegrass, Italian; conditions: Preemergence; for Ryegrass, Italian plant response rating: 125 g ai/ha, visual injury on 0 to 100 scale (0 no effect, 100 complete control), approximately 10 days; for Plant response rating, Ryegrass, Italian: 500 g ai/ha, 0 to 100 scale (0 no effect, 100 complete control)
Method in brief: as §2

[14] = system: barnyardgrass (Echinochloa crus-galli); test: Test A postemergence, barnyardgrass; conditions: Postemergence, 0 to 100 scale (0 no effect, 100 complete control); for Plant response rating, Barnyardgrass: 125 g ai/ha, visual injury approx. 10 days; for Barnyardgrass plant response rating: 500 g ai/ha, visual injury vs untreated controls after approx. 10 days
Method in brief: as §1

[15] = system: ragweed (common ragweed, Ambrosia artemisiifolia); test: Test A postemergence, ragweed; conditions: Postemergence, 0 to 100 scale (0 no effect, 100 complete control); for Plant response rating, Ragweed: 125 g ai/ha, visual injury approx. 10 days; for Ragweed plant response rating: 500 g ai/ha, visual injury vs untreated controls after approx. 10 days
Method in brief: as §2

| SMILES | Plant response rating, Wheat [1] | Wheat plant response rating [1] | Kochia plant response rating (kochia (Bassia scoparia) [2]) | Plant response rating, Kochia (kochia (Bassia scoparia) [2]) | Plant response rating, Blackgrass [3] | Blackgrass plant response rating [3] | Barnyardgrass plant response rating [4] | Plant response rating, Barnyardgrass [4] | Ragweed plant response rating [5] | Plant response rating, Ragweed [5] | Plant response rating, Galium [6] | Galium plant response rating [6] | Plant response rating, Pigweed [7] | Pigweed plant response rating [7] | Plant response rating, Corn (corn (Zea mays)) | Corn plant response rating (corn (Zea mays)) | Plant response rating, Foxtail, Giant [8] | Foxtail, Giant plant response rating [8] | Plant response rating, Kochia (kochia (Bassia scoparia) [9]) | Kochia plant response rating (kochia (Bassia scoparia) [9]) | also measured |
| --- | --- | --- | --- | --- | --- | --- | --- | --- | --- | --- | --- | --- | --- | --- | --- | --- | --- | --- | --- | --- | --- |
| Cc1cc(C)c(N(S(=O)(=O)C(F)(F)F)S(=O)(=O)C(F)(F)F)cc1C1=NOC2CCCC12 (stereo not shown) [Compound 99] | 0 | 50 | 70 | 100 | 0 | 20 | 90 | 100 | 60 | 90 | 90 | 90 | 70 | 100 | 0 | 0 | 0 | 10 | 40 | 90 | Foxtail, Giant plant response rating [10]: 70; Plant response rating, Foxtail, Giant [10]: 80; Plant response rating, Ryegrass, Italian [11]: 0; Ryegrass, Italian plant response rating [11]: 60; Pigweed plant response rating [12]: 100; Plant response rating, Pigweed [12]: 100; Ryegrass, Italian plant response rating [13]: 50; Plant response rating, Ryegrass, Italian [13]: 90; Plant response rating, Barnyardgrass [14]: 70; Barnyardgrass plant response rating [14]: 90; Plant response rating, Ragweed [15]: 40; Ragweed plant response rating [15]: 80 |
| COC1(OC)CCN(C(=O)c2cc(NS(=O)(=O)C(F)(F)F)c(C)cc2C)CC1 [Compound 101] | 0 | 60 | 60 | 90 | 20 | 20 | 100 | 100 | 60 | 80 | 80 | 90 | 70 | 90 | 20 | 30 | 0 | 80 | 10 | 30 | Foxtail, Giant plant response rating [10]: 90; Plant response rating, Foxtail, Giant [10]: 100; Plant response rating, Ryegrass, Italian [11]: 60; Ryegrass, Italian plant response rating [11]: 70; Pigweed plant response rating [12]: 90; Plant response rating, Pigweed [12]: 90; Ryegrass, Italian plant response rating [13]: 80; Plant response rating, Ryegrass, Italian [13]: 100; Plant response rating, Barnyardgrass [14]: 80; Barnyardgrass plant response rating [14]: 90; Plant response rating, Ragweed [15]: 50; Ragweed plant response rating [15]: 70 |
| COCC1(COC)CC(c2cc(NS(=O)(=O)C(F)(F)F)c(C)cc2C)=NO1 [Compound 104] | 20 | 60 | 0 | 50 | 0 | 20 | 90 | 100 | 30 | 60 | 90 | 90 | 40 | 80 | 30 | 80 | 20 | 70 | 30 | 40 | Foxtail, Giant plant response rating [10]: 90; Plant response rating, Foxtail, Giant [10]: 100; Plant response rating, Ryegrass, Italian [11]: 10; Ryegrass, Italian plant response rating [11]: 40; Pigweed plant response rating [12]: 70; Plant response rating, Pigweed [12]: 90; Ryegrass, Italian plant response rating [13]: 50; Plant response rating, Ryegrass, Italian [13]: 100; Plant response rating, Barnyardgrass [14]: 80; Barnyardgrass plant response rating [14]: 90; Plant response rating, Ragweed [15]: 70; Ragweed plant response rating [15]: 90 |
| Cc1cc(C)c(C(=O)N(C)CC2CC2)cc1NS(=O)(=O)C(F)(F)F [Compound 107] | 0 | 40 | 0 | 50 | 0 | 30 | 90 | 100 | 50 | 80 | 90 | 90 | 50 | 60 | 0 | 80 | 10 | 50 | 20 | 40 | Foxtail, Giant plant response rating [10]: 60; Plant response rating, Foxtail, Giant [10]: 100; Plant response rating, Ryegrass, Italian [11]: 0; Ryegrass, Italian plant response rating [11]: 30; Pigweed plant response rating [12]: 80; Plant response rating, Pigweed [12]: 90; Ryegrass, Italian plant response rating [13]: 60; Plant response rating, Ryegrass, Italian [13]: 90; Plant response rating, Barnyardgrass [14]: 70; Barnyardgrass plant response rating [14]: 90; Plant response rating, Ragweed [15]: 70; Ragweed plant response rating [15]: 90 |
| Cc1c(NS(=O)(=O)C(F)(F)F)cc(C(=O)N2CCC(F)CC2)c(C)c1F [Compound 109] | 30 | 70 | 90 | 100 | 10 | 10 | 90 | 100 | 90 | 90 | 80 | 90 | 50 | 80 | 0 | 40 | 0 | 40 | 10 | 40 | Foxtail, Giant plant response rating [10]: 100; Plant response rating, Foxtail, Giant [10]: 100; Plant response rating, Ryegrass, Italian [11]: 40; Ryegrass, Italian plant response rating [11]: 60; Pigweed plant response rating [12]: 100; Plant response rating, Pigweed [12]: 100; Ryegrass, Italian plant response rating [13]: 70; Plant response rating, Ryegrass, Italian [13]: 80; Plant response rating, Barnyardgrass [14]: 0; Barnyardgrass plant response rating [14]: 70; Plant response rating, Ragweed [15]: 70; Ragweed plant response rating [15]: 80 |
